According to ChEMBL document CHEMBL3045426, “Synthesis, Antiviral and Antibacterial Activities of Isatin Mannich Bases” (Med Chem Res, 2005):
Converted amounts (≈) assume the structure as drawn.

Key:
[1] = system: Proteus mirabilis; experiment: Antimicrobial activity against Proteus mirabilis after 18 to 20 hr by agar dilution method; format: functional
[2] = system: Shigella sonnei; experiment: Antimicrobial activity against Shigella sonnei after 18 to 20 hr by agar dilution method; format: functional
[3] = system: Morganella morganii; experiment: Antimicrobial activity against Morganella morganii after 18 to 20 hr by agar dilution method; format: functional
[4] = system: Klebsiella pneumoniae; experiment: Antimicrobial activity against Klebsiella pneumoniae subsp. ozaenae after 18 to 20 hr by agar dilution method; format: functional
[5] = system: Plesiomonas; experiment: Antimicrobial activity against Plesiomonas after 18 to 20 hr by agar dilution method; format: functional
[6] = system: Mycobacterium tuberculosis; experiment: Antimycobacterial activity against Mycobacterium tuberculosis H37Rv ATCC 27294 at 6.25 ug/ml by MABA; format: functional
[7] = system: Priestia megaterium; experiment: Antimicrobial activity against Bacillus megaterium after 18 to 20 hr by agar dilution method; format: functional
[8] = system: Salmonella paratyphi; experiment: Antimicrobial activity against Salmonella enterica subsp. enterica serovar Paratyphi A after 18 to 20 hr by agar dilution method; format: functional
[9] = system: Vibrio fluvialis; experiment: Antimicrobial activity against Vibrio fluvialis after 18 to 20 hr by agar dilution method; format: functional
[10] = system: Escherichia coli; experiment: Antimicrobial activity against Escherichia coli NCTC 10418 after 18 to 20 hr by agar dilution method; format: functional
[11] = system: Salmonella typhi; experiment: Antimicrobial activity against Salmonella enterica subsp. enterica serovar Typhi after 18 to 20 hr by agar dilution method; format: functional
[12] = system: Edwardsiella tarda; experiment: Antimicrobial activity against Edwardsiella tarda after 18 to 20 hr by agar dilution method; format: functional
[13] = system: Vibrio parahaemolyticus; experiment: Antimicrobial activity against Vibrio parahaemolyticus after 18 to 20 hr by agar dilution method; format: functional
[14] = system: Salmonella typhimurium; experiment: Antimicrobial activity against Salmonella enterica subsp. enterica serovar Typhimurium after 18 to 20 hr by agar dilution method; format: functional
[15] = system: Vibrio mimicus; experiment: Antimicrobial activity against Vibrio mimicus after 18 to 20 hr by agar dilution method; format: functional
[16] = Cytotoxicity against Homo sapiens (human) CEM cells after 5 days by MTT assay; format: cell-based; details: CEM cells (CCRF-CEM)
[17] = system: Citrobacter freundii; experiment: Antimicrobial activity against Citrobacter freundii after 18 to 20 hr by agar dilution method; format: functional
[18] = system: Klebsiella pneumoniae; experiment: Antimicrobial activity against Klebsiella pneumoniae after 18 to 20 hr by agar dilution method; format: functional
[19] = system: Vibrio cholerae; experiment: Antimicrobial activity against Vibrio cholerae 0139 after 18 to 20 hr by agar dilution method; format: functional; details: 139
[20] = system: Human immunodeficiency virus 1; experiment: Antiviral activity against Human immunodeficiency virus 1 IIIB infected MT4 cells assessed as protection against viral infection after 5 days by MTT assay; format: functional; parameters: concentration or dose not given beside the values
[21] = system: Human immunodeficiency virus 1; experiment: Antiviral activity against Human immunodeficiency virus 1 IIIB infected CEM cells assessed as protection against viral infection after 6 days by XTT assay; format: functional, CCRF-CEM; parameters: concentration or dose not given beside the values
[22] = system: Pseudomonas aeruginosa; experiment: Antimicrobial activity against Pseudomonas aeruginosa after 18 to 20 hr by agar dilution method; format: functional
[23] = system: Staphylococcus aureus; experiment: Antimicrobial activity against Staphylococcus aureus after 18 to 20 hr by agar dilution method; format: functional
[24] = system: Enterobacter; experiment: Antimicrobial activity against Enterobacter after 18 to 20 hr by agar dilution method; format: functional
[25] = system: Proteus vulgaris; experiment: Antimicrobial activity against Proteus vulgaris after 18 to 20 hr by agar dilution method; format: functional
[26] = system: Shigella boydii; experiment: Antimicrobial activity against Shigella boydii after 18 to 20 hr by agar dilution method; format: functional
[27] = Cytotoxicity against Homo sapiens (human) MT4 cells after 5 days by MTT assay; format: cell-based
[28] = system: Vibrio cholerae; experiment: Antimicrobial activity against Vibrio cholerae 01 after 18 to 20 hr by agar dilution method; format: functional; details: 1
[29] = system: Human immunodeficiency virus 1; experiment: Antiviral activity against Human immunodeficiency virus 1 IIIB infected MT4 cells assessed as inhibition of virus-induced cytopathicity after 5 days by MTT assay; format: functional, organism-based; details: MT4, 120 h
[30] = system: Salmonella enteritidis; experiment: Antimicrobial activity against Salmonella enterica subsp. enterica serovar Enteritidis after 18 to 20 hr by agar dilution method; format: functional
[31] = system: Human immunodeficiency virus 1; experiment: Antiviral activity against Human immunodeficiency virus 1 IIIB infected CEM cells assessed as inhibition of virus-induced cytopathicity after 6 days by XTT assay; format: functional, organism-based; details: CCRF-CEM, 144 h
[32] = system: Hepatitis C virus; experiment: Antiviral activity against Hepatitis C virus BM4-5 infected in Huh7 cells assessed as inhibition of viral RNA replication by phosphor screening method; format: functional, Hepacivirus hominis, Huh-7
[33] = Cytotoxicity against Homo sapiens (human) HuH7 cells assessed as cell growth at 50 ug/ml after 3 days by Neutral red assay; format: cell-based, Huh-7; details: read-out: Activity

Row | SMILES | MIC [1] [µg/mL] | MIC [2] [µg/mL] | MIC [3] [µg/mL] | MIC [4] [µg/mL] | MIC [5] [µg/mL] | inhibition at 6.25 µg/mL [6] [%] | MIC [7] [µg/mL] | MIC [8] [µg/mL] | MIC [9] [µg/mL] | MIC [10] [µg/mL] | MIC [11] [µg/mL] | MIC [12] [µg/mL] | MIC [13] [µg/mL] | MIC [14] [µg/mL] | MIC [15] [µg/mL] | CC50 at 120 h [16] [µg/mL] | MIC [17] [µg/mL] | MIC [18] [µg/mL] | MIC [19] [µg/mL] | Activity [20] [%] | also measured
1 | COc1cc(Cc2cnc(/N=C3\C(=O)N(CN4CCN(c5ccc(Cl)cc5)CC4)c4ccc(Cl)cc43)nc2N)cc(OC)c1OC | 1250 (≈ 1890 µM) | 1250 (≈ 1890 µM) | 1250 (≈ 1890 µM) | 1250 (≈ 1890 µM) | 19.5 (≈ 29.5 µM) | 40 | 1250 (≈ 1890 µM) | 625 (≈ 943 µM) | 1250 (≈ 1890 µM) | 1250 (≈ 1890 µM) | 1250 (≈ 1890 µM) | 625 (≈ 943 µM) | 2.44 (≈ 3.68 µM) | 1250 (≈ 1890 µM) | 9.76 (≈ 14.7 µM) | 40.1 (≈ 60.5 µM) | 1250 (≈ 1890 µM) | 1250 (≈ 1890 µM) | 1250 (≈ 1890 µM) | 32.6 | Activity [21]: 22.64%; MIC [22]: 2500 µg/mL (≈ 3770 µM); MIC [23]: 1250 µg/mL (≈ 1890 µM); MIC [24]: 1250 µg/mL (≈ 1890 µM); MIC [25]: 1250 µg/mL (≈ 1890 µM); MIC [26]: 39.1 µg/mL (≈ 59 µM); CC50 at 120 h [27]: 38.6 µg/mL (≈ 58.3 µM); MIC [28]: 4.88 µg/mL (≈ 7.37 µM); EC50 [29]: > 38.6 µg/mL; MIC [30]: 1250 µg/mL (≈ 1890 µM); EC50 [31]: > 40.1 µg/mL; inhibition (INH) [32]: 99%; viability at 72 h, 50 ug/ml [33]: 56%
2 | COc1cc(Cc2cnc(/N=C3\C(=O)N(CN4CCN(C(=O)c5ccc(F)cc5)CC4)c4ccc(Cl)cc43)nc2N)cc(OC)c1OC | 2500 (≈ 3710 µM) | 2500 (≈ 3710 µM) | 2500 (≈ 3710 µM) | 2500 (≈ 3710 µM) | 9.76 (≈ 14.5 µM) | 38 | 2500 (≈ 3710 µM) | 625 (≈ 927 µM) | 2500 (≈ 3710 µM) | 2500 (≈ 3710 µM) | 2500 (≈ 3710 µM) | 2500 (≈ 3710 µM) | 4.88 (≈ 7.24 µM) | 2500 (≈ 3710 µM) | 2.44 (≈ 3.62 µM) | 51 (≈ 75.7 µM) | 2500 (≈ 3710 µM) | 2500 (≈ 3710 µM) | 1250 (≈ 1850 µM) | 30.2 | Activity [21]: 23.38%; MIC [22]: 2500 µg/mL (≈ 3710 µM); MIC [23]: 2500 µg/mL (≈ 3710 µM); MIC [24]: 625 µg/mL (≈ 927 µM); MIC [25]: 2500 µg/mL (≈ 3710 µM); MIC [26]: 39.1 µg/mL (≈ 57.9 µM); CC50 at 120 h [27]: 60.6 µg/mL (≈ 89.9 µM); MIC [28]: 39.1 µg/mL (≈ 57.9 µM); EC50 [29]: > 60.6 µg/mL; MIC [30]: 2500 µg/mL (≈ 3710 µM); EC50 [31]: > 51 µg/mL; inhibition (INH) [32]: 91%; viability at 72 h, 50 ug/ml [33]: 71%
3 | COc1cc(Cc2cnc(/N=C3\C(=O)N(CN4CCN(c5ccccn5)CC4)c4ccc(Cl)cc43)nc2N)cc(OC)c1OC | 1250 (≈ 1990 µM) | 1250 (≈ 1990 µM) | 312 (≈ 497 µM) | 625 (≈ 993 µM) | 9.76 (≈ 15.5 µM) | 23 | 1250 (≈ 1990 µM) | 312 (≈ 497 µM) | 1250 (≈ 1990 µM) | 1250 (≈ 1990 µM) | 1250 (≈ 1990 µM) | 1250 (≈ 1990 µM) | 1.22 (≈ 1.94 µM) | 1250 (≈ 1990 µM) | 1.22 (≈ 1.94 µM) | 29.4 (≈ 46.7 µM) | 625 (≈ 993 µM) | 1250 (≈ 1990 µM) | 312 (≈ 497 µM) | 16.6 | Activity [21]: 23.55%; MIC [22]: 1250 µg/mL (≈ 1990 µM); MIC [23]: 1250 µg/mL (≈ 1990 µM); MIC [24]: 1250 µg/mL (≈ 1990 µM); MIC [25]: 625 µg/mL (≈ 993 µM); MIC [26]: 2.44 µg/mL (≈ 3.88 µM); CC50 at 120 h [27]: 39.2 µg/mL (≈ 62.3 µM); MIC [28]: 9.76 µg/mL (≈ 15.5 µM); EC50 [29]: > 39.2 µg/mL; MIC [30]: 1250 µg/mL (≈ 1990 µM); EC50 [31]: > 29.4 µg/mL; inhibition (INH) [32]: 89%; viability at 72 h, 50 ug/ml [33]: 101%
